{"source": "patent US7202233B2", "about": "“Alprazolam inclusion complexes and pharmaceutical compositions thereof” (Farmarc Nederland BV, priority 2000, dated 2007)", "origin": "cited, not measured here", "key": {"[1]": {"conditions": "tablet formulation, conventional orogastric administration"}, "[2]": {"conditions": "20% solution of 2-hydroxypropyl-beta-cyclodextrin"}, "[3]": {"conditions": "sublingual use of commercially available oral tablet dosage forms"}, "[4]": {"conditions": "above pH 6; FIG. 1 (Cho et al. 1983)"}}, "data": [{"smiles": "Cc1nnc2n1-c1ccc(Cl)cc1C(c1ccccc1)=NC2", "note": "[alprazolam, 8-chloro-1-methyl-6-phenyl-4H-[1,2,4]triazolo[4,3a][1,4]benzodiazepine]", "values": [{"measurement": "time of maximum plasma levels post-dose", "setting": "[1]", "value": "0.7 to 1.8", "unit": "h"}, {"measurement": "solubility enhancement", "setting": "[2]", "value": 16, "unit": "fold"}, {"measurement": "speed of onset, sublingual versus conventional orogastric administration", "setting": "[3]", "value": "no significant benefit"}, {"measurement": "presence of ring-open form as a function of pH", "setting": "[4]", "value": "no ring-open alprazolam above pH 6"}]}]}
